One series deals with advanced solid tumors. The following applies: pretreated patients with advanced solid tumors, phase 1 dose-escalation; cited from earlier work.
The next series concerns the target T1, FGFR1 (Homo sapiens, UniProt P11362).
T1 construct: human FGFR1 (residues 456−765); 6×His (N, cleaved yes); made in house; host or cells: E. coli BL21 (DE3), co-expressed with YOPH
In words: ADP-Glo kinase inhibition assay, FGFR1. Format: biochemical. Particulars: kinase activity, 10 μM ATP, n = 3. (ADP-Glo turns the ADP formed in a reaction into a luminescent signal.)

The target in a further series is T2, FGFR1(V561M) (Homo sapiens, UniProt P11362, V561M).
T2 construct: human FGFR1 (residues 456−765); 6×His (N, cleaved yes); made in house; host or cells: E. coli BL21 (DE3), co-expressed with YOPH
T2 sequence (P11362 456-765 V561M): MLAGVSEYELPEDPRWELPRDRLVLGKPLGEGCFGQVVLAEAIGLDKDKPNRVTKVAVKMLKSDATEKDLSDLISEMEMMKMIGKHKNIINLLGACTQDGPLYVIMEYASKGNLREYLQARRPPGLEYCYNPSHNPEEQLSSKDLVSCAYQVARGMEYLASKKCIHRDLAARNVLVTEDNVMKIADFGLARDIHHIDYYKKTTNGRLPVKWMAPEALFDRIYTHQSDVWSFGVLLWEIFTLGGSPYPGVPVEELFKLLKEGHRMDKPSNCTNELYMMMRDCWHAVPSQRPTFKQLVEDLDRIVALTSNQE
Description: ADP-Glo kinase inhibition assay, FGFR1(V561M) gatekeeper mutant. The following applies: kinase activity, 10 μM ATP, n = 3. The format is biochemical.

In the next series the target is T3, FGFR2 (Homo sapiens, UniProt P21802).
T3 construct: FGFR2 (residues 453−770); 6×His (N, cleaved yes); made in house; host or cells: E. coli BL21 (DE3), co-expressed with YOPH
T3 sequence (P21802 453-770): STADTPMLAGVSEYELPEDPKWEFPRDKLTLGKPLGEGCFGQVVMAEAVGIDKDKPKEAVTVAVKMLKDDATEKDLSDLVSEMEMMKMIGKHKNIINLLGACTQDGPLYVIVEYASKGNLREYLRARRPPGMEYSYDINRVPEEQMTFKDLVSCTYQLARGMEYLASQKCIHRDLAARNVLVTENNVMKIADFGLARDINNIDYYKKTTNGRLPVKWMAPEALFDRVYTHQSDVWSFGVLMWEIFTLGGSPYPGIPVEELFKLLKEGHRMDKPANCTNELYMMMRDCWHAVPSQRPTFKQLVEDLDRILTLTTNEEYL
In words: ADP-Glo kinase inhibition assay, FGFR2. Format: biochemical. The following applies: kinase activity, 10 μM ATP, n = 3.

Another series has as its target T4, FGFR2(V564F) (Homo sapiens, UniProt P21802, V564F).
T4 construct: FGFR2 (residues 453−770); 6×His (N, cleaved yes); made in house; host or cells: E. coli BL21 (DE3), co-expressed with YOPH
In words: ADP-Glo kinase inhibition assay, FGFR2(V564F) gatekeeper mutant. Format: biochemical.

A further series has as its target T5, FGFR3 (Homo sapiens, UniProt P22607).
T5 construct: FGFR3 (residues 450−758); 6×His (N, cleaved yes); made in house; host or cells: E. coli BL21 (DE3), co-expressed with YOPH
Description: ADP-Glo kinase inhibition assay, FGFR3. The following applies: kinase activity, 10 μM ATP, n = 3. Format: biochemical. The method, then:
(§1) FGFRs, SRC and HCK were prepared as previously described[31]–[33]. […] The primers were synthesized by Tsingke Biotechnolog Co., Ltd., and the sequences were listed in Supplementary Table 2. Then plasmid was transfected into E. coli BL21 (DE3) cells and co-expressed with YOPH to get the non-phosphorylated proteins. Cells were grown in LB at 37 °C and induced for 16 h with 0.5 mM IPTG at 18 °C. Cells were harvested by centrifugation for next purification. All steps of purification were performed at 4 °C. Proteins were first purified by Ni-NTA affinity chromatography, and then 6×His tag was removed by PreScission or TEV protease. […] Anion exchange chromatography (Mono Q) and size exclusion chromatography (SEC) were exploited for further purification. The purified FGFRs proteins were stored in the buffer containing 20 mM tris-HCl pH 8.0, 150 mM NaCl, and 1 mM TCEP, while SRC and HCK proteins in the buffer containing 20 mM tris-HCl pH 8.0, 150 mM NaCl, 5% (v/v) glycerol, and 1 mM TCEP. […]
(§2) The ADP-Glo^TM Kinase Assay Kit (Part No #V9101) was purchased from Promega. […] Finally, […] was measured on a multimode plate reader (Perkin-Elmer) after the addition of detection reagent for half an hour to one hour. IC50 values were determined using a three-parameter log [Inhibitor] versus response model in GraphPad Prism software.

For another series, the target named is T6, FGFR3(V555M) (Homo sapiens, UniProt P22607, V555M).
T6 construct: FGFR3 (residues 450−758); 6×His (N, cleaved yes); made in house; host or cells: E. coli BL21 (DE3), co-expressed with YOPH
T6 sequence (P22607 450-758 V555M): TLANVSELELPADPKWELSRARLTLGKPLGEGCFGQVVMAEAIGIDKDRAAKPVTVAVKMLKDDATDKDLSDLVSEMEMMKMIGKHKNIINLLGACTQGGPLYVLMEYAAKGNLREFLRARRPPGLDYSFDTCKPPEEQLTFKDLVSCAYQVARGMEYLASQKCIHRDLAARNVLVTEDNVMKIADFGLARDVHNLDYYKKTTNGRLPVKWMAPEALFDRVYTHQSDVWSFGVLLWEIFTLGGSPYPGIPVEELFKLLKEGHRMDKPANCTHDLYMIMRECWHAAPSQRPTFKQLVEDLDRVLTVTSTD
Description: ADP-Glo kinase inhibition assay, FGFR3(V555M) gatekeeper mutant. Format: biochemical.

In a further series the target is T7, FGFR4 (Homo sapiens, UniProt P22455).
T7 construct: FGFR4 (residues 445−753); 6×His (N, cleaved yes); made in house; host or cells: E. coli BL21 (DE3), co-expressed with YOPH
T7 sequence (P22455 445-753): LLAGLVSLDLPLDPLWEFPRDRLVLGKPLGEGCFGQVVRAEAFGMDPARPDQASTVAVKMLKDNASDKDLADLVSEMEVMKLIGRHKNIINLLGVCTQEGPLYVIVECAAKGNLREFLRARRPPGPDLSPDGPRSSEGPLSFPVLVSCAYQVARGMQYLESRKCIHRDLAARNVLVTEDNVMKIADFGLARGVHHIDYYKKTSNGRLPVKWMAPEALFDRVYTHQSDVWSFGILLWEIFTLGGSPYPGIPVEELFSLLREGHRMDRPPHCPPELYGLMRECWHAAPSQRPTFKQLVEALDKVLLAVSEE
In words: ADP-Glo kinase inhibition assay, FGFR4. The format is biochemical. Particulars: kinase activity, 10 μM ATP, n = 3. The method, then: as §1, §2

For the next series, the target named is T8, FGFR4(V550L) (Homo sapiens, UniProt P22455, V550L).
T8 construct: FGFR4 (residues 445−753); 6×His (N, cleaved yes); made in house; host or cells: E. coli BL21 (DE3), co-expressed with YOPH
T8 sequence (P22455 445-753 V550L): as the sequence (P22455 445-753) above, with V106L counted along it
In words: ADP-Glo kinase inhibition assay, FGFR4(V550L) gatekeeper mutant. The format is biochemical. Particulars: for pIC50: kinase activity, ADP-Glo, 10 μM ATP, n = 3.

The target of series [1] is T9, SRC (Gallus gallus, UniProt P00523).
T9 construct: chicken SRC (residues 251−533); 6×His (N, cleaved yes); made in house; host or cells: E. coli BL21 (DE3), co-expressed with YOPH
In words: ADP-Glo kinase inhibition assay, SRC. Format: biochemical, chicken. The following applies: for pIC50: kinase activity, ADP-Glo, 10 μM ATP, n = 3. On the procedure: (§3) FGFRs, SRC and HCK were prepared as previously described[31]–[33]. […] The primers were synthesized by Tsingke Biotechnolog Co., Ltd., and the sequences were listed in Supplementary Table 2. Then plasmid was transfected into E. coli BL21 (DE3) cells and co-expressed with YOPH to get the non-phosphorylated proteins. Cells were grown in LB at 37 °C and induced for 16 h with 0.5 mM IPTG at 18 °C. Cells were harvested by centrifugation for next purification. All steps of purification were performed at 4 °C. Proteins were first purified by Ni-NTA affinity chromatography, and then 6×His tag was removed by PreScission or TEV protease. […] Anion exchange chromatography (Mono Q) and size exclusion chromatography (SEC) were exploited for further purification. The purified FGFRs proteins were stored in the buffer containing 20 mM tris-HCl pH 8.0, 150 mM NaCl, and 1 mM TCEP, while SRC and HCK proteins in the buffer containing 20 mM tris-HCl pH 8.0, 150 mM NaCl, 5% (v/v) glycerol, and 1 mM TCEP. The purified proteins were concentrated to about 5–15 mg/mL and stored at −80 °C for subsequent studies.
(§4) The ADP-Glo^TM Kinase Assay Kit (Part No #V9101) was purchased from Promega. The experiments were performed according to the manufacturer’s instructions. All kinase inhibition assays were performed with optimized kinase assay buffer consisting of 40 mM Tris-HCl (pH ranging from 7.5 to 8.0), 20 mM MgCl2, 20 mM NaCl, 0.1 mg/mL BSA, 1 mM TCEP, and 4% DMSO[34]. […] Second, 5×ATP plus poly (4:1 Glu, Tyr) peptides (abcam, Part No #ab204877) were added to start the kinase reactions. The final reaction consisted of 0.04 μM kinase, 50 μM Tyr4 peptide and 10 μM ATP in kinase buffer. Then the reactions were terminated by the addition of stop buffer ADP-Glo after half an hour of incubation. […] Finally, […] was measured on a multimode plate reader (Perkin-Elmer) after the addition of detection reagent for half an hour to one hour. IC50 values were determined using a three-parameter log [Inhibitor] versus response model in GraphPad Prism software.

The next series deals with T10, YES (Homo sapiens, UniProt P07947).
T10 construct: purchased Carna 08-175
T10 sequence (P07947 whole entry): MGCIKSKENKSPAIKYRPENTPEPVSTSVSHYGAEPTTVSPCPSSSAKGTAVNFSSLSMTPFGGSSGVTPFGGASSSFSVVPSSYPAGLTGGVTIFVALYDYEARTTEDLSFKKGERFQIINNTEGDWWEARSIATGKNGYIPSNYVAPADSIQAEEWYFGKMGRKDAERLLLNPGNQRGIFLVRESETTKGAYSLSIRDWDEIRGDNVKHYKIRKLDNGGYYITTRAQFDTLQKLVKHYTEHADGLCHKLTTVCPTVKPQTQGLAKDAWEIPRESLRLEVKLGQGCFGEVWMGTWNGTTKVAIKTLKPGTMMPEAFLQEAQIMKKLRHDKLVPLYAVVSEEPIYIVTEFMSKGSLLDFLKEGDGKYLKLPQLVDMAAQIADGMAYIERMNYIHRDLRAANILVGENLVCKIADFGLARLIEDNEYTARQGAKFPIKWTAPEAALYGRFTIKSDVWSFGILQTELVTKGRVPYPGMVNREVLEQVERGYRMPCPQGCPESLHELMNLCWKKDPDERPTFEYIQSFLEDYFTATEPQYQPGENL
Description: ADP-Glo kinase inhibition assay, YES. The following applies: for pIC50: kinase activity, ADP-Glo, 10 μM ATP, n = 3. The format is biochemical. The method, then:
as §3, §4

In another series the target is T11, SRC(C277A) (Gallus gallus, UniProt P00523, C277A).
T11 construct: chicken SRC (residues 251−533); made in house; host or cells: E. coli BL21 (DE3), co-expressed with YOPH
In words: ADP-Glo kinase inhibition assay, SRC(C277A). The format is biochemical, chicken. Particulars: for pIC50: kinase activity, ADP-Glo, 10 μM ATP, n = 3. On the procedure:
as §3, §4

The target of the next series is T12, HCK (Homo sapiens, UniProt P08631).
T12 construct: human HCK (residues 247−526); 6×His (N, cleaved yes); made in house; host or cells: E. coli BL21 (DE3), co-expressed with YOPH
T12 sequence (P08631 247-526): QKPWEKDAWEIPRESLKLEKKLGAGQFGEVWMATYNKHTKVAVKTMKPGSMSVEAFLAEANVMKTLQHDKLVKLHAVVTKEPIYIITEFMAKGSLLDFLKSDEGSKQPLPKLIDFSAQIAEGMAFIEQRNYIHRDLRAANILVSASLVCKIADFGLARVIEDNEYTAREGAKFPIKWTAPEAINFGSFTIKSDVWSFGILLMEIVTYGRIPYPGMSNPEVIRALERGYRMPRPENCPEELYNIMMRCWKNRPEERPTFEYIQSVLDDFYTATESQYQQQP
In words: ADP-Glo kinase inhibition assay, HCK. Format: biochemical. The following applies: kinase activity, 10 μM ATP, n = 3. The method, then: as §1, §2

The target of series [2] is T9, SRC. Description: MALDI-TOF MS covalent adduct formation, SRC. Format: binding, chicken. Particulars: protein:inhibitor 1:2, overnight, 4 °C. On the procedure: as §3
Series [3] concerns FGFR gatekeeper mutations. Particulars: cited from earlier work.
Where [4] appears, read: kinase activity, ADP-Glo, 10 μM ATP, n = 3.

pIC50: −log10 of the molar value.

Usually pIC50 stands for the negative decadic logarithm of the IC50, by convention in mol/L. Lower therefore signals a high IC50.

T4 sequence (P21802 453-770 V564F): as the sequence (P21802 453-770) above, with V112F counted along it
T1 sequence (P11362 456-765): as the sequence (P11362 456-765 V561M) above, with M106V counted along it
T5 sequence (P22607 450-758): as the sequence (P22607 450-758 V555M) above, with M106V counted along it

In the case of `C=CC(=O)N1CC[C@H](n2nc(C#Cc3cc(OC)cc(OC)c3)c3c(N)ncnc32)C1` [TAS-120], the “most common adverse events” value in the series on advanced solid tumors was “hyperphosphatemia, diarrhea and constipation”.
Take `C=CC(=O)Nc1ccc(CN2C(=O)N(c3cc(OC)cc(OC)c3)Cc3cnc(Nc4ccc(N5CCN(C)CC5)cc4)nc32)cc1` [FIIN-2]: the negative-log IC50 (pIC50) on FGFR1 was 8.19; against FGFR1(V561M), 6.67; at FGFR2 it was 8.54; against FGFR2(V564F) (setting [4]), 6.56; against FGFR3 it was 8.17; at FGFR3(V555M) (setting [4]) it was 7.01. Further, the pIC50 at FGFR4 is 7.68; against FGFR4(V550L), 6.59; against SRC [1], 6.48; against YES, 6.44; on SRC(C277A), less than 5.30; on HCK, less than 5.30. In addition, the “fold decrease in potency, FGFR2(V564F) vs wild type” value on FGFR2(V564F) (IC50 mutant relative to wild-type FGFR2) is listed as 95 fold. Also, the “fold reduction of potency, FGFR3(V555M) vs wild type” value at FGFR3(V555M) (IC50 mutant relative to wild-type FGFR3) is given as 15 fold. Further, the “fold decrease in potency, FGFR4(V550L) vs wild type” value at FGFR4(V550L) (IC50 mutant relative to wild-type FGFR4) was 12 fold. Besides, on SRC(C277A) (kinase assay), the “potency against SRC(C277A) (in words)” value was “lost their potency”. Also, the “mass shift of SRC protein (covalent adduct)” value at SRC [2] is “mass shifts were observed”.
Consider `C=CC(=O)N1CCN(CCCn2c(=O)c(-c3c(Cl)c(OC)cc(OC)c3Cl)cc3cnc(NC)nc32)CC1` [PRN1371, 8-(3-(4-Acryloylpiperazin-1-yl)propyl)-6-(2,6-dichloro-3,5-dimethoxyphenyl)-2-(methylamino)pyrido[2,3-d]pyrimidin-7(8H)-one], for which the pIC50 is 7.50 at FGFR4; less than 6.00 on FGFR4(V550L); less than 5.30 against SRC [1]; less than 5.30 at YES; less than 5.30 on SRC(C277A); less than 5.30 against HCK. Also, the “effect on FGFR4(V550L) (in words)” value on FGFR4(V550L) (kinase assay) is “little effect”. Moreover, the “potency against SRC (in words)” value at SRC [1] (kinase assay) is “negligible potency”. In addition, at YES (kinase assay), the “potency against YES (in words)” value is listed as “negligible potency”. The “potency against FGFR gatekeeper mutations (in words)” value in series [3] was “little potency”.
As for `CCN1CCN(c2ccc(Nc3cc(N(C)C(=O)Nc4c(Cl)c(OC)cc(OC)c4Cl)ncn3)cc2)CC1` [BGJ398, 3-(2,6-dichloro-3,5-dimethoxy-phenyl)-1-{6-[4-(4-ethyl-piperazin-1-yl)-phenylamino]-pyrimidin-4-yl}-1-methyl-urea], the “potency against FGFR gatekeeper mutations (in words)” value in [3] is recorded as “little potency”.

The record behind these values is PMC9814232, “Structural insights into the potency and selectivity of covalent pan-FGFR inhibitors” (Communications Chemistry, 2022).
